Test system: CcrM from Moraxella lincolnii
Assay: radiochemical DNA methylation assay
Type: biochemical, Lwoffella lincolnii
Settings: read-out: M. lincolnii IC50; DNA and AdoMet as substrates

IC50: 45.8 ± 3.2 µM
Substance: NSC317003 [NSC 2]

Source: paper PMC12019475 (ACS Omega, 2025)
